9 compounds from patent publication US12458572B2, “Homogeneous liquid composition comprising 1,2-octanediol and use thereof” (Minasolve SAS, priority 2020, dated 2025) can be followed below.

One data set is described as follows: Solubility in 1,2-octanediol. The class given is physicochemical.
Conditions: not given
On the procedure: The solubility of water in 1,2-octanediol exceeds 30% at 40° C. However, mixtures of 1,2-octanediol with water tend to form highly viscous gels at ambient temperature which are hard to handle.
Glycerol, with glycerine and 1,2,3-trihydroxypropane as well-known alternative names, is a C3 alkanetriol. The solubility of glycerol in 1,2-octanediol exceeds 30%. However, mixtures of 1,2-octanediol and glycerol tend to be highly viscous and might separate at low temperatures. Furthermore, the addition of high amounts of glycerol to skin care formulations may cause a sticky skin-feel.
As to `OCC(O)CO` [1,2,3-trihydroxypropane], the “solubility of glycerol in 1,2-octanediol” value is recorded as “exceeds 30%”.

A further data set in a line: log POW, n-octanol/water partition coefficient, OECD Test No. 117. The class given is physicochemical.
Conditions: not given
On the procedure:
The partition coefficient between n-octanol and water, also called ‘log POW’ and performed according to OECD Test No. 117 at 25° C., of 1,2-octanediol is 2.1. […] A specialist trained in the art could therefore expect that a mixture of water, 1,2-octanediol and hydrophilic short chain alkanediols and/or alkanetriols would form a hydrophilic phase containing water, and a separate lipophilic phase containing 1,2-octanediol.
The miscibility of 1,2-octanediol with C3-C4 alkanediols is well-known. However, comparably large amounts of these diols are needed for lowering the melting point of 1,2-octanediol below 15° C. Furthermore, C3-C4 polyols are highly hydrophilic components with a log POW of ≤0, as detailed in the following table (Table 1).
As for `OCC(O)CO` [1,2,3-trihydroxypropane], the “log POW (25° C.)” value is recorded as −1.75. Consider `CC(O)CO` (stereo not shown) [1,2-propanediol], for which the “log POW (25° C.)” value is on record as 1.07. Turning to `OCCCCO` [1,4-butanediol], the “log POW (25° C.)” value was −0.88. The same measure, in the same setting: with `CC(O)C(C)O` (stereo not shown) [2,3-butanediol] the figure was −0.92.

The same data set, now with this note: OECD Test No. 117 at 25° C.
In the case of `CCC(O)CO` (stereo not shown) [1,2-butanediol], the “log POW (25° C.)” value is −0.59.

As to `CCCCCCC(O)CO` (stereo not shown) [1,2-octanediol], the “log POW (25° C.)” value worked out at 2.1. The same measure, in the same setting: under `CC(O)CCO` (stereo not shown) [1,3-butanediol] stands −0.92; under `OCCCO` [1,3-propanediol], 0.71.

Regarding `CC(CO)CO` [2-methyl-1,3-propanediol], the “log POW (25° C.)” value is given as −0.6.
